Values of other authors as cited in patent publication US5374661A (Sano Corporation, priority 1993, dated 1994).

How the values were obtained:
[1] = oral

## O=C(O)Cc1ccccc1Nc1c(Cl)cccc1Cl [Diclofenac]
cyclooxygenase
  inhibition of cyclooxygenase pathway (in words): inhibits the cyclooxygenase pathway with subsequent reduction in prostaglandin and thromboxane production
Lipoxygenase pathway
  inhibition of lipoxygenase pathway (in words): may inhibit the lipoxygenase pathway with subsequent reduction in leukotriene production
[1]
  less frequent side effects: abdominal distension, flatulence and peptic ulcers with bleeding
  most common gastrointestinal side effects: nausea, vomiting, abdominal pain, dyspepsia and diarrhea
